pKd: −log10 of the molar value.
Legend:
[1] = tested on: 32D-BCR-Abl-T3151; assay: Cell cycle analysis; format: cell-based, murine; conditions: 24 hours of treatment
Text: (§1) Ba/F3.p210 cells were obtained by transfecting the IL-3-dependent marine hematopoietic Ba/F3 cell line with a pGD vector containing p210BCR-ABL (B2A2) cDNA (Daley and Baltimore, 1988; Sattler et al., 1996; Okuda et al., 1996). Murine hematopoietic 32D cells were transduced with retrovirus to express p210 Bcr-ABL (32D.p210 cells) (Matulonis et al., 1993); the 32D-T315I cell line was transfected by electroporation with the imatinib resistant BCR-ABL construct (pCI-neo Mammalian Expression Vector; Promega (#E1841) harboring the point mutation T315I (Weisberg et al., 2005). Ba/F3 cells were stably transfected by electroporation with imatinib-resistant BCR-ABL constructs (pCI-neo Mammalian Expression Vector; Promega (#E1841) harboring the point mutations T315I, F317L, F486S, and M351T; transfectants were selected for neomycin resistance and IL-3-independent growth (Weisberg et al., 2005). Ba/F3 cells were stably transfected by electroporation with BCR-ABL point mutants identified in a random mutagenesis screen for BCR-ABL point mutants conferring resistance to nilotinib: Q252H, E292K, Y253C, Y253H, E255K, and V289L (Ray et al., 2007). Ba/F3 cells were made to express Tel-PDGFRβ as described by Golub et al., 1994, and Carroll et al., 1996. Constructs of D842V-PDGFRα and V561D-PDGFRα cDNA cloned into pcDNA3.1 were stably transfected into Ba/F3 cells by electroporation, and cells were selected for neomycin resistance and IL3-independent growth as described by Weisberg et al., 2006.
(§2) All cell lines were cultured with 5% CO2 at 37° C. in RPMI (Mediatech, Inc., Herndon, Va.) with 10% fetal calf serum (FCS) and supplemented with 1% L-glutamine. Parental Ba/F3 cells were similarly cultured with 15% WEHI-conditioned medium as a source of IL-3. Transfected cell lines were cultured in media supplemented with 1 mg/ml G418.
(§3) Cell cycle analysis was performed using approximately 500,000 cells, which were centrifuged at 1500 rpm for 5 min, washed in PBS, and the pellet re-suspended in 500 μl of propidium iodide solution (50 μg/ml propidium iodide, 0.1% NP-40, 0.1% sodium citrate). The mixture was stored in the dark at 4° C. for a minimum of 15 min, and then analyzed by flow cytometry. Apoptosis of drug-treated cells was measured using the Annexin-V-Fluos Staining Kit (Boehringer Mannheim, Indianapolis).

[2] = tested on: 32D-BCR-Abl-T3151; assay: Apoptosis assay; format: cell-based, murine; parameters: unit not given here; conditions: approximately 3 days of treatment
Text: as §1, §2, §3
(§4) Cells cultured in the presence or absence of drug were washed 1× with phosphate-buffered saline (PBS) and centrifuged for 5 min at 1500 rpm. Washed cell pellets were re-suspended in 100 μl of 20% Annexin-V-fluorescein labeling reagent and 20% propidium iodide (PI) in HEPES buffer. Cells were incubated for 15 min at room temperature, followed by dilution with 0.8 ml of HEPES buffer. Samples were then analyzed by flow cytometry. As controls, cells were incubated for 15 min with PI alone, Annexin-V-fluorescein labeling reagent alone, or HEPES buffer, and then diluted with HEPES buffer and analyzed by flow cytometry.

[3] = tested on: 32D-BCR-Abl; assay: Apoptosis assay; format: cell-based, murine; parameters: unit not given here; conditions: approximately 3 days of treatment
Text: as §1, §2, §3, §4

[4] = target: ABL1 (Homo sapiens (Human), UniProt P00519); assay: KINOMEscan competition binding assay
Experimental: (§5) KINOMEscan™ (Ambit Biosciences, San Diego, Calif.), a high-throughput method for screening small molecular agents against a large panel of human kinases, was utilized for compound 2.
(§6) Kinases where significant binding affinity was detected at 10 μM were retested in dose-response format to determine a dissociation constant. The size of the red circle is proportion to Kd. […] The compound binds in the “DFG-out” conformation as evident by the position of F405. Ample space is available adjacent to the gatekeeper residue T338 providing a rationale for the tolerance for a larger amino acid at this position.

[5] = target: ABL1(T315I) (Homo sapiens (Human), UniProt P00519, T315I); assay: KINOMEscan competition binding assay
Experimental: as §5, §6

[6] = target: CDK3 (Homo sapiens (Human), UniProt Q00526); assay: KINOMEscan competition binding assay
Experimental: as §5, §6

[7] = target: CDK5 (Homo sapiens (Human), UniProt Q00535); assay: KINOMEscan competition binding assay
Experimental: as §5, §6

[8] = target: DDR1 (Homo sapiens (Human), UniProt Q08345); assay: KINOMEscan competition binding assay
Experimental: as §5, §6

[9] = target: KIT (Homo sapiens (Human), UniProt P10721); assay: KINOMEscan competition binding assay
Experimental: as §5, §6

[10] = target: PDGFRA (Homo sapiens (Human), UniProt P16234); assay: KINOMEscan competition binding assay
Experimental: as §5, §6

[11] = target: PDGFRB (Homo sapiens (Human), UniProt P09619); assay: KINOMEscan competition binding assay
Experimental: as §5, §6

[12] = target: RET (Homo sapiens (Human), UniProt P07949); assay: KINOMEscan competition binding assay
Experimental: as §5, §6

[13] = target: TIE2 (Homo sapiens (Human), UniProt Q02763); assay: KINOMEscan competition binding assay
Experimental: as §5, §6

[14] = target: VEGFR2 (Homo sapiens (Human), UniProt P35968); assay: KINOMEscan competition binding assay
Experimental: as §5, §6

[15] = target: p38-gamma (Homo sapiens (Human), UniProt P53778); assay: KINOMEscan competition binding assay
Experimental: as §5, §6

CDK5, sequence (Q00535 whole entry): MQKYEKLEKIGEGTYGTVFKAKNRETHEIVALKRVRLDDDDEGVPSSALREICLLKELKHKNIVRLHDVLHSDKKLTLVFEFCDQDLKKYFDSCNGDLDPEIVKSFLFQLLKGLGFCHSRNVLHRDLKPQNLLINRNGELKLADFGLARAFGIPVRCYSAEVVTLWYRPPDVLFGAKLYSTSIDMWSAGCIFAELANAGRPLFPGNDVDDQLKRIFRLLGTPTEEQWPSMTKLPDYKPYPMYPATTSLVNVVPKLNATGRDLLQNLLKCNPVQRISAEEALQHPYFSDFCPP
p38-gamma, sequence (P53778 whole entry): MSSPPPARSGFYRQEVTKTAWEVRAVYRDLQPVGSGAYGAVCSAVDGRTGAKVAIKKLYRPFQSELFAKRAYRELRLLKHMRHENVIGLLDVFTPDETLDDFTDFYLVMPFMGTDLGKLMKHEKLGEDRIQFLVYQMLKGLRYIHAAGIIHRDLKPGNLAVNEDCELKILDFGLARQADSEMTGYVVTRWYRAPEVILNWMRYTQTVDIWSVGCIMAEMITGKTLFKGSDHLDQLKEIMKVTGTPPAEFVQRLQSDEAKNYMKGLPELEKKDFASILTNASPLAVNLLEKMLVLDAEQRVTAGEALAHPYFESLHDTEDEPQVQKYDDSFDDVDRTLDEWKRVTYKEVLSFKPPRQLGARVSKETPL
KIT, sequence (P10721 26-976): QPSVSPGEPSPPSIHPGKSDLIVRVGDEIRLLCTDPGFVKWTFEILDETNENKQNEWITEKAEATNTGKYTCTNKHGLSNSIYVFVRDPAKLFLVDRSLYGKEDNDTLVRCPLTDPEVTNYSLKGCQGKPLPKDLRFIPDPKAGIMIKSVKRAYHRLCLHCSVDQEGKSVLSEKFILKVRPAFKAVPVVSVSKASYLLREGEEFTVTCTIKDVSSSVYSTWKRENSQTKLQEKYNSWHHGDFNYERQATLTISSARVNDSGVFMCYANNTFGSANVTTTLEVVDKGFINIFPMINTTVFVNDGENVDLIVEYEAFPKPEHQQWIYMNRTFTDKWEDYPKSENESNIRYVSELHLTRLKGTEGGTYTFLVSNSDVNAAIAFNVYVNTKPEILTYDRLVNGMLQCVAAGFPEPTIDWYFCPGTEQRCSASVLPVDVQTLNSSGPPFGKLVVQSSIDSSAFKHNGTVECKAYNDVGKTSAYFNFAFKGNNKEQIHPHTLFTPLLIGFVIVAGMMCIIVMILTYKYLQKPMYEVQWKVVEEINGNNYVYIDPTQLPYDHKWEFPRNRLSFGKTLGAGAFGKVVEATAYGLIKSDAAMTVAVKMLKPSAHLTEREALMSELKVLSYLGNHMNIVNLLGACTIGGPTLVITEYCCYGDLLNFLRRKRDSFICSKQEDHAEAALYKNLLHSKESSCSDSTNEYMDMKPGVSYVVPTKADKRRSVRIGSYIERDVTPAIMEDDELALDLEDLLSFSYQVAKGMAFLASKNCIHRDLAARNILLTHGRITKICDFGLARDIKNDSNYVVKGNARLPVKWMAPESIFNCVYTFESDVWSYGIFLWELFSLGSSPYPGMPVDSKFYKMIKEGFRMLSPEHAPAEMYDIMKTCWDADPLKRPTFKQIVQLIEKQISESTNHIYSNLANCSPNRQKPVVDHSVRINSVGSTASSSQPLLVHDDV
CDK3, sequence (Q00526 whole entry): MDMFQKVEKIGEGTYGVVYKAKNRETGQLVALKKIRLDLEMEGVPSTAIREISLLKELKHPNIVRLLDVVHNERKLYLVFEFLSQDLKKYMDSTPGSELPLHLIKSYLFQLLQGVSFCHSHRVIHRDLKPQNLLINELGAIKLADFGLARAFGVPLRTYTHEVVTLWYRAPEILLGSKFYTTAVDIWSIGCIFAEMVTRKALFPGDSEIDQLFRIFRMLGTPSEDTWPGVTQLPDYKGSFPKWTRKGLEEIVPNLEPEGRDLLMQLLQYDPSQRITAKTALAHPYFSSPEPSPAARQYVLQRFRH
PDGFRA, sequence (P16234 24-1089): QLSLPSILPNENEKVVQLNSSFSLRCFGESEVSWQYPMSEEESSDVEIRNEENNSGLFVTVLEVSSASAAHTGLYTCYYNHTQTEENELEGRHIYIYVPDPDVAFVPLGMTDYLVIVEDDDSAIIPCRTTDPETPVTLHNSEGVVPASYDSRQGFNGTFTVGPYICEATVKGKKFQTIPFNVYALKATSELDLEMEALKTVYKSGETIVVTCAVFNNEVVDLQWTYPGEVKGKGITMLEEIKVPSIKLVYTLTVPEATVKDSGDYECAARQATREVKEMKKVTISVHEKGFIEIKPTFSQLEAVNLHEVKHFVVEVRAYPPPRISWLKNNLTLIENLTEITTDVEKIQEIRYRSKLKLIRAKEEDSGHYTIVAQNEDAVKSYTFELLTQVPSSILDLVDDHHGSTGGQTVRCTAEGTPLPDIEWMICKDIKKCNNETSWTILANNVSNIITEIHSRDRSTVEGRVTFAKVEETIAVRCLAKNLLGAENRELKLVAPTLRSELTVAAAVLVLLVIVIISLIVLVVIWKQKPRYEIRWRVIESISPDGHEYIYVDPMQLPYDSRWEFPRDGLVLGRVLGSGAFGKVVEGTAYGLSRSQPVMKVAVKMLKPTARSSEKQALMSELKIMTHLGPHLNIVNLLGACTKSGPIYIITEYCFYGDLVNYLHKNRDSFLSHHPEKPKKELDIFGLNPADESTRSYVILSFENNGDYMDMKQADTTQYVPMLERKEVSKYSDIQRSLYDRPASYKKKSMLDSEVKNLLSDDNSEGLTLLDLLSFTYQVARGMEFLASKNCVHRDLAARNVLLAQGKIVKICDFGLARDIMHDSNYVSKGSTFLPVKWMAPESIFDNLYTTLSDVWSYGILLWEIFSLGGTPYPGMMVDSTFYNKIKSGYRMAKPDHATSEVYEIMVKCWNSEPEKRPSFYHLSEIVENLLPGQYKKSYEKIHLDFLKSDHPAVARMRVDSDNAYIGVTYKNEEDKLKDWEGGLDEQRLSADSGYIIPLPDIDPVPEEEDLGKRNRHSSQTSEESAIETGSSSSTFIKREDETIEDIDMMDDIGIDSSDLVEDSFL
DDR1, sequence (Q08345 19-913): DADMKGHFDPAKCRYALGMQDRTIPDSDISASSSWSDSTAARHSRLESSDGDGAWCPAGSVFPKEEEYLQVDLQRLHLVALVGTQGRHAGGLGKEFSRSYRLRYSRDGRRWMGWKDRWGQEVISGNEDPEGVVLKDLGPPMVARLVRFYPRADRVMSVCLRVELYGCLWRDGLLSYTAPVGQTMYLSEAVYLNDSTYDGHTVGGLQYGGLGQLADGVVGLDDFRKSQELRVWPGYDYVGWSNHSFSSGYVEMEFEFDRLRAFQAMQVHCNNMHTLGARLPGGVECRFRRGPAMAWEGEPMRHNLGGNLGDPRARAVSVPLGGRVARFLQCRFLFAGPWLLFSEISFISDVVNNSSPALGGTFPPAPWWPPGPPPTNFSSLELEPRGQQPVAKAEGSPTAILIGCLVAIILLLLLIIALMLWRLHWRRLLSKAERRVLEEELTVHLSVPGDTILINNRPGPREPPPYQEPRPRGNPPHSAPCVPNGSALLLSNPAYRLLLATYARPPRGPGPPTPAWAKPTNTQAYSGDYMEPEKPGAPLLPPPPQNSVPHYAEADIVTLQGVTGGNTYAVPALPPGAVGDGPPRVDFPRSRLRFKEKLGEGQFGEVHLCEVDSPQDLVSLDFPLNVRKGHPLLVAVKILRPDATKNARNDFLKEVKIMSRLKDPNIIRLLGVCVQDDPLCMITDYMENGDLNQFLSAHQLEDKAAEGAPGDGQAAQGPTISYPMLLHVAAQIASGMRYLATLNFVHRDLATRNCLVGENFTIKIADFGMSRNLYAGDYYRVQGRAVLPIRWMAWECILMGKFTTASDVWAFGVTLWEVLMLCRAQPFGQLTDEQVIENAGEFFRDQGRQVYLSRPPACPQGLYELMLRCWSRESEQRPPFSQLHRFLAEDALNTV
TIE2, sequence (Q02763 23-1124): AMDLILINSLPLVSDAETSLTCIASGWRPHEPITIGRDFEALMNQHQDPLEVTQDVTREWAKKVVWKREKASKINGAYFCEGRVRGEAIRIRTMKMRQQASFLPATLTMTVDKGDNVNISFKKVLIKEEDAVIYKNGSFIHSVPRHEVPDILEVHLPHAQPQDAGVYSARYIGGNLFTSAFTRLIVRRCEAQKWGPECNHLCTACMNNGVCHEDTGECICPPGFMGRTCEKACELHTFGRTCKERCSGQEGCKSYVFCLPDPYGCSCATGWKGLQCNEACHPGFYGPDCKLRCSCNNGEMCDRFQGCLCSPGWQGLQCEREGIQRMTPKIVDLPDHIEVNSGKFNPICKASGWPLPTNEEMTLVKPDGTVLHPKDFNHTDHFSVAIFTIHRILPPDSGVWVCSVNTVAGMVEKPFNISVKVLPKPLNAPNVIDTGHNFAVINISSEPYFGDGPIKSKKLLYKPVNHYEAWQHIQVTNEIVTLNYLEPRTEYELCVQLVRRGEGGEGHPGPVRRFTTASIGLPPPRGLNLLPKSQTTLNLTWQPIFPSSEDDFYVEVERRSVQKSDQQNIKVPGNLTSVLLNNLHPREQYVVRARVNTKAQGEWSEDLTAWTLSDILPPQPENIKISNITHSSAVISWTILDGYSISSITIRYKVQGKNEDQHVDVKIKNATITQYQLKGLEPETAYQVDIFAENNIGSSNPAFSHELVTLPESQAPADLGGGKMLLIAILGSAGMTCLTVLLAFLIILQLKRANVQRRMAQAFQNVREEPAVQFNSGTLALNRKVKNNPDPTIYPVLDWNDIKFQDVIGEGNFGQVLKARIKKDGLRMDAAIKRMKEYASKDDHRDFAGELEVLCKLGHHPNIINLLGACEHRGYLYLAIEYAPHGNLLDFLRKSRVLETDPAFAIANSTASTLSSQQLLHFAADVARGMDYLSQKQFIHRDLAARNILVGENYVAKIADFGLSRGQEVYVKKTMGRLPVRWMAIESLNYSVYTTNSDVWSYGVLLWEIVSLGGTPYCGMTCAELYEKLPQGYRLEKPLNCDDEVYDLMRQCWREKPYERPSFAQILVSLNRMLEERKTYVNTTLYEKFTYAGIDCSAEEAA

SMILES: CCN1CCN(Cc2ccc(NC(=O)c3cccc(-c4ccc5nc(NC(=O)C6CC6)sc5n4)c3)cc2C(F)(F)F)CC1 [Compound 2]
- % G0G1 ([1]; 0.01 μM): 36.96%
- % G2M ([1]; 0.01 μM): 22.64%
- % S ([1]; 0.01 μM): 40.40%
- % G0G1 ([1]; 0.1 μM): 46.35%
- % G2M ([1]; 0.1 μM): 10.54%
- % S ([1]; 0.1 μM): 43.11%
- % G0G1 ([1]; 1.0 μM): 73.13%
- % G2M ([1]; 1.0 μM): 9.29%
- % S ([1]; 1.0 μM): 17.59%
- Apoptotic ([2]; 0.01 μM): 9.0
- Necrotic ([2]; 0.01 μM): 0.1
- Viable ([2]; 0.01 μM): 90.88
- Apoptotic ([2]; 0.1 μM): 9.8
- Necrotic ([2]; 0.1 μM): 0.3
- Viable ([2]; 0.1 μM): 89.9
- Apoptotic ([2]; 1.0 μM): 72.7
- Necrotic ([2]; 1.0 μM): 0
- Viable ([2]; 1.0 μM): 27.2
- Apoptotic ([3]; 0.01 μM): 5.8
- Necrotic ([3]; 0.01 μM): 0.2
- Viable ([3]; 0.01 μM): 94
- Apoptotic ([3]; 0.1 μM): 52.3
- Necrotic ([3]; 0.1 μM): 0.6
- Viable ([3]; 0.1 μM): 47.1
- Apoptotic ([3]; 1.0 μM): 95.3
- Necrotic ([3]; 1.0 μM): 0.1
- Viable ([3]; 1.0 μM): 4.6
- pKd [4]: 8.48
- pKd [5]: 8.92
- pKd [6]: 6.60
- pKd [7]: 6.82
- pKd [8]: 8.47
- pKd [9]: 8.54
- pKd [10]: 8.11
- pKd [11]: 8.74
- pKd [12]: 8.25
- pKd [13]: 7.24
- pKd [14]: 7.24
- pKd [15]: 7.00

Reference: patent publication US8765747B2, “Fused 2-aminothiazole compounds” (Dana-Farber Cancer Institute, Inc., priority 2009, dated 2014)
